Data reported in article PMC5577603, “Marine Inspired 2-(5-Halo-1H-indol-3-yl)-N,N-dimethylethanamines as Modulators of Serotonin Receptors: An Example Illustrating the Power of Bromine as Part of the Uniquely Marine Chemical Space” (Marine Drugs, 2017).
Like-named read-outs stand apart in the source and are kept apart here.

Key:
Experiment in all cases: receptor binding assay (NIMH PDSP)
5-HT1A = molecular target: T1, 5-HT1A (Homo sapiens, UniProt P08908)
T1 construct: gene HTR1A; cloned receptor, NIMH PDSP panel
T1 sequence (P08908 1-422): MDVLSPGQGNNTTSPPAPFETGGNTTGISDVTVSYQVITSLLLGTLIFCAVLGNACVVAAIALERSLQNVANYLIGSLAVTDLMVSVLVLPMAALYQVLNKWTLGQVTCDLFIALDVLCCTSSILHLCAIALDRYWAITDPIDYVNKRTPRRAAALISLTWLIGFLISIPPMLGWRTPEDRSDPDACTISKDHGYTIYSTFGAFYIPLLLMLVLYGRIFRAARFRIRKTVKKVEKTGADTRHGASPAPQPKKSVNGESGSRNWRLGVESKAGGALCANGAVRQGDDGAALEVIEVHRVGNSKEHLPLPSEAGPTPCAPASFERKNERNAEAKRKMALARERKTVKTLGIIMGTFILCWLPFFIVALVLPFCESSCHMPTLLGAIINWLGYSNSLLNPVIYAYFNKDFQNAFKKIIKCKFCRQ
From the text: receptor binding assay (NIMH PDSP) on 5-HT1A

5-HT1D = molecular target: T2, 5-HT1D (Homo sapiens, UniProt P28221)
T2 construct: gene HTR1D; cloned receptor, NIMH PDSP panel
From the text: receptor binding assay (NIMH PDSP) on 5-HT1D

5-HT5A = molecular target: T3, 5-HT5A (Homo sapiens, UniProt P47898)
T3 construct: gene HTR5A; cloned receptor, NIMH PDSP panel
From the text: receptor binding assay (NIMH PDSP) on 5-HT5A

5-HT1B = molecular target: T4, 5-HT1B (Homo sapiens, UniProt P28222)
T4 construct: gene HTR1B; cloned receptor, NIMH PDSP panel
From the text: receptor binding assay (NIMH PDSP) on 5-HT1B

5-HT7 = molecular target: T5, 5-HT7 (Homo sapiens, UniProt P34969)
T5 construct: gene HTR7; cloned receptor, NIMH PDSP panel
From the text: receptor binding assay (NIMH PDSP) on 5-HT7

5-HT1E = molecular target: T6, 5-HT1E (Homo sapiens, UniProt P28566)
T6 construct: gene HTR1E; cloned receptor, NIMH PDSP panel
From the text: receptor binding assay (NIMH PDSP) on 5-HT1E

5-HT6 = molecular target: T7, 5-HT6 (Homo sapiens, UniProt P50406)
T7 construct: gene HTR6; cloned receptor, NIMH PDSP panel
From the text: receptor binding assay (NIMH PDSP) on 5-HT6

5-HT2B = molecular target: T8, 5-HT2B (Homo sapiens, UniProt P41595)
T8 construct: gene HTR2B; cloned receptor, NIMH PDSP panel
T8 sequence (P41595 whole entry): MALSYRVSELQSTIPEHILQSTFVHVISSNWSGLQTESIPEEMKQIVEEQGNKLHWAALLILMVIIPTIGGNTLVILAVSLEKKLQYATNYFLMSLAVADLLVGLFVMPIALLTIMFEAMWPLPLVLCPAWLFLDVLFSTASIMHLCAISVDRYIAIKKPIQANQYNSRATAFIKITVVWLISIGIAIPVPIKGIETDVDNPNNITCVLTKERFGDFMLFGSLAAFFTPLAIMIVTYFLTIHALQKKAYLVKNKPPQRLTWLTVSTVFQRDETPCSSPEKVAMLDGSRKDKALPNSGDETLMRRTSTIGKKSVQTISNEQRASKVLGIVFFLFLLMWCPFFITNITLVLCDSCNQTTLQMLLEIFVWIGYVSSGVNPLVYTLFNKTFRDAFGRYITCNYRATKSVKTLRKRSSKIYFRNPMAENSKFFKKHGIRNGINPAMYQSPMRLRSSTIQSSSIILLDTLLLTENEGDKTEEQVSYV

T5 sequence (P34969 whole entry): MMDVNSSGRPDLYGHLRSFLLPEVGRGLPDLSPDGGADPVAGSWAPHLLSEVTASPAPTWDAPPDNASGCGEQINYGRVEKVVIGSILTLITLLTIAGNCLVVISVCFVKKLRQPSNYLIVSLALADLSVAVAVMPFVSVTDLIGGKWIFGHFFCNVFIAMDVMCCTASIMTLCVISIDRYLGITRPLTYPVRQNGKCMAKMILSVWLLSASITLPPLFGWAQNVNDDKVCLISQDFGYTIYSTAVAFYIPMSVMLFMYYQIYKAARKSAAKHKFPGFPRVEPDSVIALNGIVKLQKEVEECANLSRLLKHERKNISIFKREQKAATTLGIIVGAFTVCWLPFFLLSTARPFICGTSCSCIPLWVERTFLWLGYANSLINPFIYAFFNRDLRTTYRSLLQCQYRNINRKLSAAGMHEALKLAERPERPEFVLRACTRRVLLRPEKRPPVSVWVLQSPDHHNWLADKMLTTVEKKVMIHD
T2 sequence (P28221 whole entry): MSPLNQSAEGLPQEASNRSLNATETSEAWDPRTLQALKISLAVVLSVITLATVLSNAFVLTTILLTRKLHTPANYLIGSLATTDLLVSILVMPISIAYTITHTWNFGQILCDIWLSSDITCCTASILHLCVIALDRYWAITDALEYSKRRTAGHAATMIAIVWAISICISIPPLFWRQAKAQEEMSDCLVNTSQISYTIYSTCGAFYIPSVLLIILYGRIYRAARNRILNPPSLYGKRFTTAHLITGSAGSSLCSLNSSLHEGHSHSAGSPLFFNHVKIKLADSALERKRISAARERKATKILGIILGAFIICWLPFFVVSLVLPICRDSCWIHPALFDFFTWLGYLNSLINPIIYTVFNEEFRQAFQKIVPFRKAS
T7 sequence (P50406 whole entry): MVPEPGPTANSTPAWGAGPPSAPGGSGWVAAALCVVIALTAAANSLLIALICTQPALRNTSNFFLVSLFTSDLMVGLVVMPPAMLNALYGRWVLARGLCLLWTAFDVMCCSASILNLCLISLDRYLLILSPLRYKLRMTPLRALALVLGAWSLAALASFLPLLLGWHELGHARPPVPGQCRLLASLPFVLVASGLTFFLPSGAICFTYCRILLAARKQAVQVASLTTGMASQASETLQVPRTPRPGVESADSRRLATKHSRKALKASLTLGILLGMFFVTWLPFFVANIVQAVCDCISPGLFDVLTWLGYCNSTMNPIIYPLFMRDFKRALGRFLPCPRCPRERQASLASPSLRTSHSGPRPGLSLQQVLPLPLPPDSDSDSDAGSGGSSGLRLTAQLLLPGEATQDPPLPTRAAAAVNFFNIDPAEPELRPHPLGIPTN
T4 sequence (P28222 whole entry): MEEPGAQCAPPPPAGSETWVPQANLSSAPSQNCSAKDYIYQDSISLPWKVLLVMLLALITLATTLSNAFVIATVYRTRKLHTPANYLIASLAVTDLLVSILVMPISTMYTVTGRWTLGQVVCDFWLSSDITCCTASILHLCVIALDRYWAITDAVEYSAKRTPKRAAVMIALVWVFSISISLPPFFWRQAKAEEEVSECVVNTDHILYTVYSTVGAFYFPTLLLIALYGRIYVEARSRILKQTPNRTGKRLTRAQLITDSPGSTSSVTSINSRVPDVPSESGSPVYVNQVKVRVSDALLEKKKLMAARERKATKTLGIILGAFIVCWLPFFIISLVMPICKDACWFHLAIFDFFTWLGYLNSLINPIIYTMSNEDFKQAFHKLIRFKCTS
T3 sequence (P47898 whole entry): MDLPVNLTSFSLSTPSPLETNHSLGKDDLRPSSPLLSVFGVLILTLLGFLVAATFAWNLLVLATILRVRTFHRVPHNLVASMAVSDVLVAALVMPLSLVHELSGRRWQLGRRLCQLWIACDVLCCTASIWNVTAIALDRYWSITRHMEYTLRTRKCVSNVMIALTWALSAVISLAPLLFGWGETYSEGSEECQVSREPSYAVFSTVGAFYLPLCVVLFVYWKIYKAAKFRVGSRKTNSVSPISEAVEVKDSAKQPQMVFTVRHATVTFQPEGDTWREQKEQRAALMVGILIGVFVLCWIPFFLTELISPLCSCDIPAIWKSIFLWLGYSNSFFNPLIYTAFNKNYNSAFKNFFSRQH
T6 sequence (P28566 whole entry): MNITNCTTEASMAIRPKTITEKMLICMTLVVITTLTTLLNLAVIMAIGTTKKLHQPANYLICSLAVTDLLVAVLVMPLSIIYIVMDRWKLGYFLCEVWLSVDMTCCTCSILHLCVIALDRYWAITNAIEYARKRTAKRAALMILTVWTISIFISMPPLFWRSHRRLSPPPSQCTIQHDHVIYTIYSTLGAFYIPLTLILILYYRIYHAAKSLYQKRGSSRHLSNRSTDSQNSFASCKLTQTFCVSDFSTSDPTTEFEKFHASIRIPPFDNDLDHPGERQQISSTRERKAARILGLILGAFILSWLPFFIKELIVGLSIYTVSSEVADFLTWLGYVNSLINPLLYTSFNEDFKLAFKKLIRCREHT

2-(1H-indol-3-yl)-N,N-dimethylethanamine [2a]
Ki (5-HT1A; read-out: Compound 2a Ki): 110 ± 17 nM

CN(C)CCc1c[nH]c2ccccc12 [2a, 2-(1H-indol-3-yl)-N,N-dimethylethanamine]
Ki (5-HT1D): 29.3 ± 3.7 nM | Ki (5-HT5A): > 10000 nM | Ki (5-HT1B): 66 ± 9 nM | Ki (5-HT7): 77 ± 16 nM | Ki (5-HT1E): > 10000 nM | Ki (5-HT6): 189 ± 32.5 nM

CN(C)CCc1c[nH]c2ccc(I)cc12 [2e, 2-(5-iodo-1H-indol-3-yl)-N,N-dimethylethanamine]
Ki (5-HT1D): 8.5 ± 1.38 nM | Ki (5-HT5A): 1250 nM | Ki (5-HT1A): 130 ± 16 nM | Ki (5-HT1B): 43 ± 5 nM | Ki (5-HT7): 116 ± 13 nM | Ki (5-HT1E): 310 ± 33 nM | Ki (5-HT2B): 98 ± 4 nM | Ki (5-HT6): 198 ± 20 nM
